Data reported in patent US20090170762A1, “Treatment of Diabetes Related Obesity” (UUTech Limited, priority 2005, published 2009).
Ends that are not written are not given here.

Experiments:
human GIP-R = target: T1, human GIP-R (Homo sapiens, UniProt P48546); experiment: Cyclic AMP production in GIP-R transfected CHL cells; type: cell-based; conditions: for remaining activity at 0.1 µM: CHL, read-out: cAMP response in presence of 10^-7 M GIP (% GIP max); for inhibition of GIP-stimulated cAMP production: in presence of GIP (10^-7 m)
T1 construct: expressed in transfected cells; host or cells: Chinese Hamster Lung (CHL) fibroblast cells, stably transfected
T1 sequence (P48546 22-466): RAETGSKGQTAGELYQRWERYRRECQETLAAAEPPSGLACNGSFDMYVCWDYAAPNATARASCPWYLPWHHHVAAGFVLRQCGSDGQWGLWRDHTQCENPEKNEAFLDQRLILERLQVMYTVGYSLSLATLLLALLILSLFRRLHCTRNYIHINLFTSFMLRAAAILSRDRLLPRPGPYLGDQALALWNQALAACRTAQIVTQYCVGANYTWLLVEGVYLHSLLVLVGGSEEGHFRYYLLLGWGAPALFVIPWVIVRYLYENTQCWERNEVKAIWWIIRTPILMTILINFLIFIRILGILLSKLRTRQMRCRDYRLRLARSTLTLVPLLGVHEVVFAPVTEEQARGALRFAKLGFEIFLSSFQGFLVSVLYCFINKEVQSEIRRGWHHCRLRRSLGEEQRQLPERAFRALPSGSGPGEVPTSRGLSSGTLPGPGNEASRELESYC
Experimental: Tissue Culture. […] (v/v) fetal bovine serum, 1% (v/v) antibiotics (100 U/ml penicillin, 0.1 mg/ml streptomycin) (all from Gibco, Paisley, Strathclyde, Scotland). BRIN-BD11 cells were cultured in RPMI-1640 tissue culture medium containing 10% (v/v) fetal bovine serum, 1% (v/v) antibiotics (100 U/ml penicillin, 0.1 mg/ml streptomycin) and 11.1 mm glucose. The origin and secretory characteristics of these cells have been described in detail previously (McClenaghan, N. H. et al., 1996, Diabetes 45:1132-1140). The cells were maintained in sterile tissue culture flasks (Corning Glass Works, Sunderland, UK) at 37° C. in an atmosphere of 5% CO2 and 95% air using a LEEC incubator (Laboratory Technical Engineering, Nottingham, UK).
Methods. […] The culture medium was removed and cells subsequently washed twice with 2 ml ice-cold HBS buffer (130 mm NaCl, 20 mm HEPES, 0.9 mm NaHPO4, 0.8 mm MgSO4, 5.4 mm KCl, 1.8 mm CaCl2, 5.6 mm glucose and 25 μm phenol red) (pH 7.4). […] The medium was subsequently removed and the cells lysed with […] of lysing solution (5% TCA, 3% SDS, 92% H2O, also containing 0.1 mm unlabelled cAMP and 0.1 mm unlabelled ATP) (Sigma, Poole, Dorset, UK). The plates were then left on a shaker at room temperature for 30 minutes and tritiated cAMP formation determined by column chromatography using Dowex and alumina ion exchange columns (BioRad Life Science Research, Alpha Analytical, Larne, UK) as previously described (Gault, V. A. et al 2002, Biochem. J. 367:913-920).

BRIN-BD11 cells = experiment: Insulin secretion from BRIN-BD11 cells; type: cell-based; conditions: for Maximal insulin response (% GIP max) / Insulin response in presence of 10^-7 M GIP (% GIP max): 5.6 mm glucose; for Maximal insulin response (% GIP max): 20 min; for Insulin response in presence of 10^-7 M GIP (% GIP max): in presence of 10^-7 M native GIP; for effect on GIP-stimulated insulin secretion: in presence of GIP (10^-7 m)
Experimental: Tissue Culture. Chinese Hamster Lung (CHL) fibroblast cells stably transfected with the human GIP-R were cultured in DMEM tissue culture medium containing 10%. (v/v) fetal bovine serum, 1% (v/v) antibiotics (100 U/ml penicillin, 0.1 mg/ml streptomycin) (all from Gibco, Paisley, Strathclyde, Scotland). BRIN-BD11 cells were cultured in RPMI-1640 tissue culture medium containing 10% (v/v) fetal bovine serum, 1% (v/v) antibiotics (100 U/ml penicillin, 0.1 mg/ml streptomycin) and 11.1 mm glucose. The origin and secretory characteristics of these cells have been described in detail previously (McClenaghan, N. H. et al., 1996, Diabetes 45:1132-1140). The cells were maintained in sterile tissue culture flasks (Corning Glass Works, Sunderland, UK) at 37° C. in an atmosphere of 5% CO2 and 95% air using a LEEC incubator (Laboratory Technical Engineering, Nottingham, UK).
Methods. Insulin release from BRIN-BD11 cells was determined by use of cell monolayers as described previously (Gault, V. A. et al. 2002, Biochem. J. 367:913-920). In brief, BRIN-BD11 cells were seeded into 24-well plates (Nunc, Roskilde, Denmark) at a density of 1.5×10^5 cells per well and allowed to attach overnight in RPMI-1640 culture medium at 37° C. Acute tests for insulin secretion were preceded by 40 minutes pre-incubation at 37° C. in 1.0 ml Krebs Ringer Bicarbonate Buffer (KRBB, 115 mm NaCl, 4.7 mm KCl, 1.28 mm CaCl2, 1.2 mM MgSO4, 1.2 mm KH2PO4, 25 mM HEPES and 10 mm NaHCO3; pH 7.4 with NaOH) supplemented with 0.1% (w/v) BSA and 1.1 mM glucose. […] After 20 minutes incubation, the buffer was removed and used for measurement of insulin by radioimmunoassay (Flatt, P. R. and Bailey, C. J., 1981, Diabetologia 5:573-577).

ob/ob mice = experiment: Acute antihyperglycaemic and insulin releasing activity with glucose and native GIP in ob/ob mice; type: in vivo, mouse; conditions: for plasma glucose and insulin profiles when administered together with native GIP: 25 nmol/kg i.p. with GIP and glucose 18 mmol/kg, vs native GIP
Experimental: Animals. Obese diabetic (ob/ob) mice derived from the colony maintained at Aston University, UK (Bailey C. J. et al., 1982, Int. J. Obes. 6:11-21) were used at 14-18 weeks of age. Animals were age-matched, divided into groups and housed individually in an air-conditioned room at 22±2° C. with a 12 hour light: 12 hour dark cycle (08:00-20:00 hr). Drinking water and a standard rodent maintenance diet (Trouw Nutrition, Cheshire, UK) were freely available. All animal experiments were carried out in accordance with the UK Animals (Scientific Procedures) Act 1986.
Biochemical analysis. Plasma glucose was assayed by an automated glucose oxidase procedure ([…]) using a Beckman Glucose Analyzer II (Beckman Instruments, Galway, Ireland). Plasma insulin was assayed by radioimmunoassay.
Methods. […] All test solutions were administered in a final volume of 5 ml/kg body weight. Blood samples were collected from the cut tip of the tail vein of conscious mice into chilled fluoride/heparin coated glucose microcentrifuge tubes (Sarstedt, Numbrecht, Germany) immediately prior to injection and at 15, 30 and 60 minutes post injection. Blood samples were immediately centrifuged using a Beckmnan microcentrifuge (Beckman Instruments, High Wycombe, Buckinghamshire, UK) for 30 seconds at 13,000×g. Plasma glucose was assayed using a Beckman Glucose Analyzer n (Beckman Instruments, High Wycombe, Buckinghamshire, UK) (Stevens, J. F., 1971, Clin. Chim. Acta 32:199-201) and plasma insulin was determined by RIA (Flatt, P. R. and Bailey, C. J., 1981, Diabetologia 5:573-577). All animal studies were carried out in accordance with the UK Animals (Scientific Procedures) Act 1986.

DPP-IV = DPP-IV (Homo sapiens, UniProt P27487); experiment: Degradation of GIP and Glu3-substituted GIP analogs by DPP-IV (HPLC); type: in vitro ADME; conditions: for half-life at 2 μm: DPP-IV enzyme (5 mU) in buffer, pH 7.8, incubation with DPP-IV, unit not given (time points in hrs), read-out: Estimated Half-Life (converted); for Intact Peptide Remaining (%) 0 hrs. / remaining at 2 h, 2 μm / remaining at 4 h, 2 μm / remaining at 8 h, 2 μm: incubation with DPP-IV (5 mU), 37°C; for Intact Peptide Remaining (%) 0 hrs.: pH 7.8, 0 hrs; for remaining at 2 h, 2 μm / remaining at 4 h, 2 μm / remaining at 8 h, 2 μm: isolated DPP-IV enzyme (5 mU); for remaining at 2 h, 2 μm: pH 7.8, 2 hrs, read-out: Intact Peptide Remaining (%) 2 hrs.; for remaining at 4 h, 2 μm: pH 7.8, 4 hrs, read-out: Intact Peptide Remaining (%) 4 hrs.; for remaining at 8 h, 2 μm: pH 7.8, 8 hrs, read-out: Intact Peptide Remaining (%) 8 hrs.; for resistance to DPP-IV degradation: words, up to 8 hours incubation
Chain of DPP-IV (P27487 whole entry, species assumed): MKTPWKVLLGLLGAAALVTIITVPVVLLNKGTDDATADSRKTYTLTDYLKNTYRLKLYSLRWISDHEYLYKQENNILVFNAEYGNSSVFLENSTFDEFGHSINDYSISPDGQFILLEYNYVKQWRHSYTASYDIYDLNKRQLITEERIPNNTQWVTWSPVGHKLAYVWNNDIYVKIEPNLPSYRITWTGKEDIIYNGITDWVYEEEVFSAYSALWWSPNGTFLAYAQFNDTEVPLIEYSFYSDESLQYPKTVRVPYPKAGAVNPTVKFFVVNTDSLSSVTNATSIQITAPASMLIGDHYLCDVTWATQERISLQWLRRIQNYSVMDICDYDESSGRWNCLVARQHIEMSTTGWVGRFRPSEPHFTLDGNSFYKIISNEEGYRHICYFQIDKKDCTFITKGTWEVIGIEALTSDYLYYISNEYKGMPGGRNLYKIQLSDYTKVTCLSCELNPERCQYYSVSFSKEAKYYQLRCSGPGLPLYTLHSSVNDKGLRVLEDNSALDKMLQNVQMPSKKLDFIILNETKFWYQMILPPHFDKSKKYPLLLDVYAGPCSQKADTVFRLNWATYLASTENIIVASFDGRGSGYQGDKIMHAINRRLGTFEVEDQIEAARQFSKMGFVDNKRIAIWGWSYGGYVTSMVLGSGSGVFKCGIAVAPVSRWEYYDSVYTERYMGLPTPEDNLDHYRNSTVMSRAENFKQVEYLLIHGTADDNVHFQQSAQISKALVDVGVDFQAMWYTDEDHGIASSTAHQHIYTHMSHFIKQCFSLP

## YAAGTFISDYSIAMDKIHQQDFVNWLLAQKGKKNDWKHNITQ [(Ala^3)GIP]
Human GIP-R
  EC50: 2.3 nM
  remaining activity at 0.1 µM: 88 ± 3%
  inhibition of GIP-stimulated cAMP production: did not significantly inhibit
BRIN-BD11 cells; BRIN-BD11 cells
  Maximal insulin response (% GIP max): 111 ± 6 % GIP max
  Insulin response in presence of 10^-7 M GIP (% GIP max): 115 ± 3 % GIP max
BRIN-BD11 cells; BRIN-BD11 cells, vs 5.6 mm glucose alone
  stimulation of insulin secretion compared with control incubations: 1.7 fold
BRIN-BD11 cells
  effect on GIP-stimulated insulin secretion: did not significantly affect
ob/ob mice
  plasma glucose and insulin profiles when administered together with native GIP: significantly inhibited the action of GIP
DPP-IV
  half-life at 2 μm: 1.1 h
  Intact Peptide Remaining (%) 0 hrs.: 100%
  remaining at 2 h, 2 μm: 5.9 ± 1.7%
  remaining at 4 h, 2 μm: 2.7 ± 0.1%
  remaining at 8 h, 2 μm: 0%
  resistance to DPP-IV degradation: least resistant

## YAFGTFISDYSIAMDKIHQQDFVNWLLAQKGKKNDWKHNITQ [(Phe^3)GIP]
Human GIP-R
  EC50: 1 nM
  remaining activity at 0.1 µM: 62 ± 3%
  inhibition of GIP-stimulated cAMP production: significantly inhibited
BRIN-BD11 cells; BRIN-BD11 cells
  Maximal insulin response (% GIP max): 75 ± 3 % GIP max
  Insulin response in presence of 10^-7 M GIP (% GIP max): 73 ± 3 % GIP max
BRIN-BD11 cells
  effect on GIP-stimulated insulin secretion: significantly inhibited
ob/ob mice
  plasma glucose and insulin profiles when administered together with native GIP: significantly inhibited the action of GIP
DPP-IV
  half-life at 2 μm: 1.2 h
  Intact Peptide Remaining (%) 0 hrs.: 100%
  remaining at 2 h, 2 μm: 15 ± 5.2%
  remaining at 4 h, 2 μm: 2.5 ± 0.1%
  remaining at 8 h, 2 μm: 0%

## CC[C@H](C)[C@H](NC(=O)[C@H](CO)NC(=O)[C@H](Cc1ccc(O)cc1)NC(=O)[C@H](CC(=O)O)NC(=O)[C@H](CO)NC(=O)[C@@H](NC(=O)[C@H](Cc1ccccc1)NC(=O)[C@@H](NC(=O)CNC(=O)[C@H](CCC(=O)O)NC(=O)[C@H](C)NC(=O)[C@@H](N)Cc1ccc(O)cc1)[C@@H](C)O)[C@@H](C)CC)C(=O)N[C@@H](C)C(=O)N[C@@H](CCSC)C(=O)N[C@@H](CC(=O)O)C(=O)N[C@@H](CCCCN)C(=O)N[C@H](C(=O)N[C@@H](Cc1c[nH]cn1)C(=O)N[C@@H](CCC(N)=O)C(=O)N[C@@H](CCC(N)=O)C(=O)N[C@@H](CC(=O)O)C(=O)N[C@@H](Cc1ccccc1)C(=O)N[C@H](C(=O)N[C@@H](CC(N)=O)C(=O)N[C@@H](Cc1c[nH]c2ccccc12)C(=O)N[C@@H](CC(C)C)C(=O)N[C@@H](CC(C)C)C(=O)N[C@@H](C)C(=O)N[C@@H](CCC(N)=O)C(=O)N[C@@H](CCCCN)C(=O)NCC(=O)N[C@@H](CCCCN)C(=O)N[C@@H](CCCCN)C(=O)N[C@@H](CC(N)=O)C(=O)N[C@@H](CC(=O)O)C(=O)N[C@@H](Cc1c[nH]c2ccccc12)C(=O)N[C@@H](CCCCN)C(=O)N[C@@H](Cc1c[nH]cn1)C(=O)N[C@@H](CC(N)=O)C(=O)N[C@H](C(=O)N[C@H](C(=O)N[C@@H](CCC(N)=O)C(=O)O)[C@@H](C)O)[C@@H](C)CC)C(C)C)[C@@H](C)CC [GIP, reference compound]
BRIN-BD11 cells; BRIN-BD11 cells
  Maximal insulin response (% GIP max): 100 % GIP max
  Insulin response in presence of 10^-7 M GIP (% GIP max): 100 % GIP max
ob/ob mice; compared with i.p. glucose alone
  glycaemic excursion and insulin response: decreased the glycaemic excursion and enhanced insulin response
DPP-IV
  half-life at 2 μm: 1.3 h
  Intact Peptide Remaining (%) 0 hrs.: 100%
  remaining at 2 h, 2 μm: 20.9 ± 1.6%
  remaining at 4 h, 2 μm: 4.9 ± 1.2%
  remaining at 8 h, 2 μm: 0%
  resistance to DPP-IV degradation: complete degradation by 8 hours

## YAWGTFISDYSIAMDKIHQQDFVNWLLAQKGKKNDWKHNITQ [(Trp^3)GIP]
Human GIP-R
  EC50: 3 nM
  remaining activity at 0.1 µM: 78 ± 2%
  inhibition of GIP-stimulated cAMP production: did not significantly inhibit
BRIN-BD11 cells; BRIN-BD11 cells
  Maximal insulin response (% GIP max): 73 ± 2 % GIP max
  Insulin response in presence of 10^-7 M GIP (% GIP max): 100 ± 5 % GIP max
BRIN-BD11 cells
  effect on GIP-stimulated insulin secretion: did not significantly affect
ob/ob mice
  plasma glucose and insulin profiles when administered together with native GIP: did not significantly alter
DPP-IV
  half-life at 2 μm: 1.3 h
  Intact Peptide Remaining (%) 0 hrs.: 100%
  remaining at 2 h, 2 μm: 22.5 ± 1.7%
  remaining at 4 h, 2 μm: 4.7 ± 2.4%
  remaining at 8 h, 2 μm: 0%

## YAKGTFISDYSIAMDKIHQQDFVNWLLAQKGKKNDWKHNITQ [(Lys^3)GIP]
Human GIP-R
  EC50: 2.6 nM
  remaining activity at 0.1 µM: 63.5 ± 4%
  inhibition of GIP-stimulated cAMP production: significantly inhibited
BRIN-BD11 cells; BRIN-BD11 cells
  Maximal insulin response (% GIP max): 78 ± 3 % GIP max
  Insulin response in presence of 10^-7 M GIP (% GIP max): 78 ± 4 % GIP max
BRIN-BD11 cells
  effect on GIP-stimulated insulin secretion: significantly inhibited
ob/ob mice
  plasma glucose and insulin profiles when administered together with native GIP: did not significantly alter
DPP-IV
  half-life at 2 μm: 1.7 h
  Intact Peptide Remaining (%) 0 hrs.: 100%
  remaining at 2 h, 2 μm: 41.4 ± 0.3%
  remaining at 4 h, 2 μm: 14.9 ± 1.1%
  remaining at 8 h, 2 μm: 0%
  resistance to DPP-IV degradation: significantly more resistant
